Data: patent US20120172351A1, “NOVEL FUSED CYCLIC COMPOUND AND USE THEREOF” (priority 2009, published 2012)

target: T1, human derived GPR40 (Homo sapiens, UniProt O14842); assay: Agonist action on human derived GPR40: change of intracellular calcium concentration in CHO cells (FLIPRtetra); type: cell-based; settings: agonist activity of compound at 1 μM, relative to 10 μM γ linolenic acid as 100%, wave peak height; CHO cells stably expressing human GPR40
T1 construct: expressed in transfected cells
T1 sequence (O14842 whole entry): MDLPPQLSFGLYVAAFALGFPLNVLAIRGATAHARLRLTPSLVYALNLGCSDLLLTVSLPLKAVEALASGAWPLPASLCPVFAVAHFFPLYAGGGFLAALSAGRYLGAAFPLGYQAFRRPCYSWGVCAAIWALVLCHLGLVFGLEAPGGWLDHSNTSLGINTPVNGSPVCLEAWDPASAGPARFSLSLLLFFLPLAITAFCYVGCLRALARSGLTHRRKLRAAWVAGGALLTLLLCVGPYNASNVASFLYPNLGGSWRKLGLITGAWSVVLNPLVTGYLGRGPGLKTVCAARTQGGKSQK
Procedure: The CHO cell lines that stably expressed human derived GPR40 were used for the determination of the agonist activity. Unless particularly specified, the CHO cell lines were cultured in an α-MEM medium (Wako Pure Chemical Industries, Ltd.) containing 10% dialyzed fetal bovine serum (TRA Thermo Electron).
The cells cultured almost to confluent on the day before assay were rinsed with PBS (Invitrogen), detached with 0.5 mM EDTA (Wako Pure Chemical Industries, Ltd.), and recovered by centrifugation. The obtained cells were counted, diluted to 2×10^5 cells per 1 mL medium, dispensed by 40 μL per well to a 384 well black clear bottomplate (PE Biosystems), and cultured overnight in a CO2 incubator. Various test compounds were added to CHO cells prepared as mentioned above, and change of intracellular calcium concentration was measured using FLIPRtetra (Molecular Device). For the measurement by this device, a Calcium 4 assay kit (Molecular Devices: R8142) was used.
First, fatty acid free BSA at the final concentration of 0.1% was added to the buffer attached to the kit to prepare an assay buffer. Using the assay buffer, a loading solution with Fluo4 was prepared such that the final concentration of fatty acid free BSA was 0.1% and the final concentration of probenecid was 625 μM. On the other hand, a test compound was diluted with the assay buffer to a given concentration, and dispensed to the polypropylene 384-well plate (sample plate). The medium was removed from the cell culture plate, and the loading solution with Fluo4 was dispensed by 25 μL. After culture in a CO2 incubator at 37° C. for 40 min, a sample plate and a cell plate were simultaneously set on the FLIPRtetra, various test compounds were added by 25 μL according to the program of the device, and change of intracellular calcium concentration was measured. The agonist activity of each compound at 1 μM was calculated as a relative activity value to the activity of 10 μM γ linolenic acid as 100% from the wave peak height.

Going from CCOc1nc2ccc(F)cc2n1-c1cccc2c1CCC2Nc1ccc2c(c1)OC[C@H]2CC(=O)[O-].[Na+] (stereo partly drawn) [Example 227, sodium [(3S)-6-{[4-(2-ethoxy-6-fluoro-1H-benzimidazol-1-yl)-2,3-dihydro-1H-inden-1-yl]amino}-2,3-dihydro-1-benzofuran-3-yl]acetate] to CCOc1nc2ccc(F)cc2n1-c1cccc2c1OC[C@H]2Nc1ccc2c(c1)OC[C@H]2CC(=O)[O-].[Na+] [Example 25, sodium [(3S)-6-{[(3S)-7-(2-ethoxy-6-fluoro-1H-benzimidazol-1-yl)-2,3-dihydro-1-benzofuran-3-yl]amino}-2,3-dihydro-1-benzofuran-3-yl]acetate], the “activity (%)” value rises from 105% to 129%.

Going from Cc1oc2ncccc2c1-c1cccc(CNc2ccc3c(c2)OC[C@H]3CC(=O)O)c1C [Example 223, [(3S)-6-{[2-methyl-3-(2-methylfuro[2,3-b]pyridin-3-yl)benzyl]amino}-2,3-dihydro-1-benzofuran-3-yl]acetic acid] to Cc1oc2cccnc2c1-c1cccc(CNc2ccc3c(c2)OC[C@H]3CC(=O)O)c1C [Example 221, [(3S)-6-{[2-methyl-3-(2-methylfuro[3,2-b]pyridin-3-yl)benzyl]amino}-2,3-dihydro-1-benzofuran-3-yl]acetic acid], the “activity (%)” value rises from 111% to 126%.

Going from CCOc1nc2c(OCC(F)(F)F)cccc2n1-c1cccc(CNc2ccc3c(c2)OC[C@H]3CC(=O)O)c1C [Example 180, [(3S)-6-({3-[2-ethoxy-4-(2,2,2-trifluoroethoxy)-1H-benzimidazol-1-yl]-2-methylbenzyl}amino)-2,3-dihydro-1-benzofuran-3-yl]acetic acid] to Cc1c(CNc2ccc3c(c2)OC[C@H]3CC(=O)O)cccc1-n1c(C)nc2cc(C(F)(F)F)ccc21 [Example 131, [(3S)-6-({2-methyl-3-[2-methyl-5-(trifluoromethyl)-1H-benzimidazol-1-yl]benzyl}amino)-2,3-dihydro-1-benzofuran-3-yl]acetic acid], the “activity (%)” value rises from 125% to 129%.

Going from Cc1nc2ccc(OCC(F)(F)F)cc2n1-c1cccc2c1OC[C@H]2Nc1ccc2c(c1)OC[C@H]2CC(=O)[O-].[Na+] [Example 99, sodium [(3S)-6-({(3S)-7-[2-methyl-6-(2,2,2-trifluoroethoxy)-1H-benzimidazol-1-yl]-2,3-dihydro-1-benzofuran-3-yl}amino)-2,3-dihydro-1-benzofuran-3-yl]acetate] to CCc1nc2ccccc2n1-c1cccc2c1OC[C@H]2Nc1ccc2c(c1)OC[C@H]2CC(=O)[O-].[Na+] [Example 19, sodium [(3S)-6-{[(3S)-7-(2-ethyl-1H-benzimidazol-1-yl)-2,3-dihydro-1-benzofuran-3-yl]amino}-2,3-dihydro-1-benzofuran-3-yl]acetate], the “activity (%)” value rises from 123% to 129%.

Compared with Cc1ccc(CNc2ccc3c(c2)OC[C@H]3CC(=O)O)c(C)c1-c1ccc2nc(C(F)(F)F)cn2c1 [Example 219, [(3S)-6-({2,4-dimethyl-3-[2-(trifluoromethyl)imidazo[1,2-a]pyridin-6-yl]benzyl}amino)-2,3-dihydro-1-benzofuran-3-yl]acetic acid], COc1ccc(-c2c(C(F)(F)F)ccc(CNc3ccc4c(c3)OC[C@H]4CC(=O)O)c2C)cn1 [Example 207, [(3S)-6-{[3-(6-methoxypyridin-3-yl)-2-methyl-4-(trifluoromethyl)benzyl]amino}-2,3-dihydro-1-benzofuran-3-yl]acetic acid] is lower in “activity (%)” value: 125% for the first, 121% for the second.

Going from Cc1nc(N2CCOCC2)nc(C)c1-c1cccc2c1OC[C@H]2Nc1ccc2c(c1)OC[C@H]2CC(=O)O [Example 77-2, [(3S)-6-({(3S)-7-[4,6-dimethyl-2-(morpholin-4-yl)pyrimidin-5-yl]-2,3-dihydro-1-benzofuran-3-yl}amino)-2,3-dihydro-1-benzofuran-3-yl]acetic acid] to Cc1nc(N2CCOCC2)nc(C)c1-c1cccc(CNc2ccc3c(c2)OC[C@H]3CC(=O)O)c1C [Example 242, 1,3-dihydroxy-2-(hydroxymethyl)propan-2-aminium [(3S)-6-({3[4,6-dimethyl-2-(morpholin-4-yl)pyrimidin-5-yl]-2-methylbenzyl}amino)-2,3-dihydro-1-benzofuran-3-yl]acetate], the “activity (%)” value falls from 132% to 121%.

Going from CCc1nc2ccc(Cl)cc2n1-c1cccc(CNc2ccc3c(c2)OC[C@H]3CC(=O)[O-])c1C.[Na+] [Example 173, sodium [(3S)-6-{[3-(6-chloro-2-ethyl-1H-benzimidazol-1-yl)-2-methylbenzyl]amino}-2,3-dihydro-1-benzofuran-3-yl]acetate] to Cc1c(CNc2ccc3c(c2)OC[C@H]3CC(=O)O)cccc1-n1c(C)nc2c(C)cccc21 [Example 153, [(3S)-6-{[3-(2,4-dimethyl-1H-benzimidazol-1-yl)-2-methylbenzyl]amino}-2,3-dihydro-1-benzofuran-3-yl]acetic acid], the “activity (%)” value falls from 121% to 111%.

First: CCN(c1ccc(C#N)cc1F)c1cccc2c1OC[C@H]2Nc1ccc2c(c1)OC[C@H]2CC(=O)O [Example 89, [(3S)-6-({(3S)-7-[(4-cyano-2-fluorophenyl)(ethyl)amino]-2,3-dihydro-1-benzofuran-3-yl}amino)-2,3-dihydro-1-benzofuran-3-yl]acetic acid]
Second: Cc1cc(-c2cccc3c2OC[C@H]3Nc2ccc3c(c2)OC[C@H]3CC(=O)O)c(C)s1 [Example 3, [(3S)-6-{[(3S)-7-(2,5-dimethylthiophen-3-yl)-2,3-dihydro-1-benzofuran-3-yl]amino}-2,3-dihydro-1-benzofuran-3-yl]acetic acid]
The “activity (%)” value of the first is higher: 129% for the first, 128% for the second.

First: Cc1nc(OC(F)F)nc(C)c1-c1cccc(CNc2ccc3c(c2)OC[C@H]3CC(=O)O)c1C [Example 114, [(3S)-6-({3-[2-(difluoromethoxy)-4,6-dimethylpyrimidin-5-yl]-2-methylbenzyl}amino)-2,3-dihydro-1-benzofuran-3-yl]acetic acid]
Second: Cc1nn(C(F)F)c(C)c1-c1cccc(CNc2ccc3c(c2)OC[C@H]3CC(=O)O)c1C [Example 109, [(3S)-6-({3-[1-(difluoromethyl)-3,5-dimethyl-1H-pyrazol-4-yl]-2-methylbenzyl}amino)-2,3-dihydro-1-benzofuran-3-yl]acetic acid]
The “activity (%)” value of the first is higher: 132% for the first, 122% for the second.

Going from Cc1cc(-c2cccc(CNc3ccc4c(c3)OC[C@H]4CC(=O)O)c2F)c(C)s1 [Example 121, [(3S)-6-{[3-(2,5-dimethylthiophen-3-yl)-2-fluorobenzyl]amino}-2,3-dihydro-1-benzofuran-3-yl]acetic acid] to Cc1nc2ccccn2c1-c1cccc(CNc2ccc3c(c2)OC[C@H]3CC(=O)O)c1C [Example 201, [(3S)-6-{[2-methyl-3-(2-methylimidazo[1,2-a]pyridin-3-yl)benzyl]amino}-2,3-dihydro-1-benzofuran-3-yl]acetic acid], the “activity (%)” value falls from 129% to 124%.

Going from CCCN(c1ccc(F)cn1)c1cccc(CNc2ccc3c(c2)OC[C@H]3CC(=O)O)c1C [Example 232, [(3S)-6-({3-[(5-fluoropyridin-2-yl)(propyl)amino]-2-methylbenzyl}amino)-2,3-dihydro-1-benzofuran-3-yl]acetic acid] to COc1ccc2c(c1)nc(C1CC1)n2-c1cccc(CNc2ccc3c(c2)OC[C@H]3CC(=O)O)c1C [Example 149, [(3S)-6-{[3-(2-cyclopropyl-5-methoxy-1H-benzimidazol-1-yl)-2-methylbenzyl]amino}-2,3-dihydro-1-benzofuran-3-yl]acetic acid], the “activity (%)” value falls from 121% to 90%.

First: Cc1nn(C(F)F)c(C)c1-c1cccc2c1OCC2Nc1ccc2c(c1)OC[C@H]2CC(=O)O (stereo partly drawn) [Example 67, [(3S)-6-({7-[1-(difluoromethyl)-3,5-dimethyl-1H-pyrazol-4-yl]-2,3-dihydro-1-benzofuran-3-yl}amino)-2,3-dihydro-1-benzofuran-3-yl]acetic acid]
Second: CCc1nc2ccc(F)c(F)c2n1-c1cccc2c1OC[C@H]2Nc1ccc2c(c1)OC[C@H]2CC(=O)[O-].[Na+] [Example 31, sodium [(3S)-6-{[(3S)-7-(2-ethyl-6,7-difluoro-1H-benzimidazol-1-yl)-2,3-dihydro-1-benzofuran-3-yl]amino}-2,3-dihydro-1-benzofuran-3-yl]acetate]
The “activity (%)” value of the first is lower: 111% for the first, 127% for the second.

First: CCOc1nc2c(F)cc(F)cc2n1-c1cccc2c1OC[C@H]2Nc1ccc2c(c1)OC[C@H]2CC(=O)[O-].[Na+] [Example 37, sodium [(3S)-6-{[(3S)-7-(2-ethoxy-4,6-difluoro-1H-benzimidazol-1-yl)-2,3-dihydro-1-benzofuran-3-yl]amino}-2,3-dihydro-1-benzofuran-3-yl]acetate]
Second: O=C([O-])C[C@@H]1COc2cc(N[C@@H]3COc4c3cccc4N3CCOc4ccccc43)ccc21.[Na+] [Example 86, sodium [(3S)-6-{[(3S)-7-(2,3-dihydro-4H-1,4-benzooxazin-4-yl)-2,3-dihydro-1-benzofuran-3-yl]amino}-2,3-dihydro-1-benzofuran-3-yl]acetate]
The “activity (%)” value of the first is lower: 117% for the first, 128% for the second.
